Test results: paper PMC5218480 (PLoS ONE, 2017)

Test system: MV-4-11 cells
Assay: Gene expression microarray analysis (Affymetrix PrimeView) and GSEA
Type: cell-based, human
Set-up: RFU PODN (11730768_x_at) / Fold change /veh PODN (11730768_x_at) / RFU LINC00158 (11744669_a_at) / Fold change /veh LINC00158 (11744669_a_at) / RFU DUSP10 (11751237_a_at) / Fold change /veh DUSP10 (11751237_a_at) / RFU ID3 (11757404_x_at) / Fold change /veh ID3 (11757404_x_at) / RFU PLEKHG5 (11737974_s_at) / Fold change /veh PLEKHG5 (11737974_s_at) / RFU LRRC4B (11730491_at) / Fold change /veh LRRC4B (11730491_at) / RFU GIMAP4 (11747438_a_at) / Fold change /veh GIMAP4 (11747438_a_at) / RFU KRT8 (11758183_x_at) / Fold change /veh KRT8 (11758183_x_at) / RFU CNN1 (11734310_a_at) / Fold change /veh CNN1 (11734310_a_at) / RFU VPS37D (11726825_at) / Fold change /veh VPS37D (11726825_at) / RFU C10orf10 (11716522_x_at) / Fold change /veh C10orf10 (11716522_x_at) / RFU KIR2DL2 /// KIR2DL4 /// KIR2DL5A /// KIR2DL5B /// KIR2DS1 /// KIR2DS2 /// KIR2DS3 /// KIR2DS4 /// KIR3DL3 /// KIR3DL3 /// KIR3DS1 (11738374_at) / Fold change /veh KIR2DL2 /// KIR2DL4 /// KIR2DL5A /// KIR2DL5B /// KIR2DS1 /// KIR2DS2 /// KIR2DS3 /// KIR2DS4 /// KIR3DL3 /// KIR3DL3 /// KIR3DS1 (11738374_at) / RFU C1QL1 (11718748_at) / Fold change /veh C1QL1 (11718748_at) / RFU TMPRSS4 (11747572_a_at) / Fold change /veh TMPRSS4 (11747572_a_at) / RFU HAMP (11756126_x_at) / Fold change /veh HAMP (11756126_x_at) / RFU RNFT2 (11725882_a_at) / Fold change /veh RNFT2 (11725882_a_at) / RFU NR4A2 (11747474_a_at) / Fold change /veh NR4A2 (11747474_a_at) / RFU ABCC12 (11746883_a_at) / Fold change /veh ABCC12 (11746883_a_at) / RFU TMEM136 (11760407_x_at) / Fold change /veh TMEM136 (11760407_x_at) / RFU CLDN22 /// WWC2 (11732394_at) / Fold change /veh CLDN22 /// WWC2 (11732394_at) / RFU HLA-DPB1 (11760878_x_at) / Fold change /veh HLA-DPB1 (11760878_x_at) / RFU SPINT1 (11716480_a_at) / Fold change /veh SPINT1 (11716480_a_at) / RFU GAP43 (11754022_s_at) / Fold change /veh GAP43 (11754022_s_at) / RFU A4GNT (11735810_at) / Fold change /veh A4GNT (11735810_at) / RFU PRB3 (11715151_x_at) / Fold change /veh PRB3 (11715151_x_at) / RFU TUBB4B (11761932_at) / Fold change /veh TUBB4B (11761932_at) / RFU CAPN14 (11732068_a_at) / Fold change /veh CAPN14 (11732068_a_at) / RFU TMCC2 (11721928_a_at) / Fold change /veh TMCC2 (11721928_a_at) / RFU IRGQ (11745062_a_at) / Fold change /veh IRGQ (11745062_a_at) / RFU FAM174B (11720279_a_at) / Fold change /veh FAM174B (11720279_a_at) / RFU TMPRSS4 (11748680_a_at) / Fold change /veh TMPRSS4 (11748680_a_at) / RFU FAM212B (11763350_a_at) / Fold change /veh FAM212B (11763350_a_at) / RFU PLEKHG5 (11743358_a_at) / Fold change /veh PLEKHG5 (11743358_a_at) / RFU ZSCAN30 (11745921_a_at) / Fold change /veh ZSCAN30 (11745921_a_at) / RFU CMKLR1 (11741424_a_at) / Fold change /veh CMKLR1 (11741424_a_at) / RFU LOC101060620 /// MAPK8IP1 (11723275_at) / Fold change /veh LOC101060620 /// MAPK8IP1 (11723275_at) / RFU SPTSSB (11747773_x_at) / Fold change /veh SPTSSB (11747773_x_at) / RFU PRSS12 (11739890_at) / Fold change /veh PRSS12 (11739890_at) / RFU BIN1 (11741810_x_at) / Fold change /veh BIN1 (11741810_x_at) / RFU WNT11 (11732464_a_at) / Fold change /veh WNT11 (11732464_a_at) / RFU C10orf10 (11716521_a_at) / Fold change /veh C10orf10 (11716521_a_at) / RFU C5orf56 (11738089_at) / Fold change /veh C5orf56 (11738089_at) / RFU CYB561 (11721691_x_at) / Fold change /veh CYB561 (11721691_x_at) / RFU ANKRD19P (11752326_a_at) / Fold change /veh ANKRD19P (11752326_a_at) / RFU OR2T12 /// OR2T33 /// OR2T8 (11738714_s_at) / Fold change /veh OR2T12 /// OR2T33 /// OR2T8 (11738714_s_at) / RFU VCAN (11748164_a_at) / Fold change /veh VCAN (11748164_a_at) / RFU JSRP1 (11732532_at) / Fold change /veh JSRP1 (11732532_at) / RFU KRTAP10-11 (11738290_x_at) / Fold change /veh KRTAP10-11 (11738290_x_at) / RFU MYO3A (11730013_a_at) / Fold change /veh MYO3A (11730013_a_at) / RFU EBF3 (11725865_a_at) / Fold change /veh EBF3 (11725865_a_at) / RFU CAMK2N1 (11719241_x_at) / Fold change /veh CAMK2N1 (11719241_x_at) / RFU C5orf56 (11738088_a_at) / Fold change /veh C5orf56 (11738088_a_at) / RFU OLFML3 (11715873_a_at) / Fold change /veh OLFML3 (11715873_a_at) / RFU LOC100653217 /// NTM (11731650_a_at) / Fold change /veh LOC100653217 /// NTM (11731650_a_at) / RFU MAPK11 (11762145_a_at) / Fold change /veh MAPK11 (11762145_a_at) / RFU FIZ1 (11724087_x_at) / Fold change /veh FIZ1 (11724087_x_at) / RFU OASL (11726364_x_at) / Fold change /veh OASL (11726364_x_at) / RFU SOX15 (11748057_x_at) / Fold change /veh SOX15 (11748057_x_at) / RFU CD79A (11719716_a_at) / Fold change /veh CD79A (11719716_a_at) / RFU HIST1H1D (11736915_at) / Fold change /veh HIST1H1D (11736915_at) / RFU CASKIN2 (11723855_a_at) / Fold change /veh CASKIN2 (11723855_a_at) / RFU LOC730098 (11760151_x_at) / Fold change /veh LOC730098 (11760151_x_at) / RFU OR4N2 (11742367_at) / Fold change /veh OR4N2 (11742367_at) / RFU PRRT2 (11749266_a_at) / Fold change /veh PRRT2 (11749266_a_at) / RFU SNX32 (11753110_a_at) / Fold change /veh SNX32 (11753110_a_at) / RFU CDHR5 (11726645_a_at) / Fold change /veh CDHR5 (11726645_a_at) / RFU RCAN1 (11760418_a_at) / Fold change /veh RCAN1 (11760418_a_at) / RFU FAM167A (11723789_a_at) / Fold change /veh FAM167A (11723789_a_at) / RFU FAM26E (11764081_at) / Fold change /veh FAM26E (11764081_at) / RFU ISYNA1 (11749810_s_at) / Fold change /veh ISYNA1 (11749810_s_at) / RFU ACY1 (11761880_at) / Fold change /veh ACY1 (11761880_at) / RFU 11764098_at / Fold change /veh 11764098_at / RFU SAMD14 (11745864_x_at) / Fold change /veh SAMD14 (11745864_x_at) / RFU NPB (11741838_a_at) / Fold change /veh NPB (11741838_a_at) / RFU TMPRSS6 (11731388_a_at) / Fold change /veh TMPRSS6 (11731388_a_at) / RFU KRTAP10-2 (11738614_at) / Fold change /veh KRTAP10-2 (11738614_at) / RFU ARHGAP8 /// PRR5-ARHGAP8 (11727945_x_at) / Fold change /veh ARHGAP8 /// PRR5-ARHGAP8 (11727945_x_at) / RFU KRTAP5-7 /// NADSYN1 (11734609_at) / Fold change /veh KRTAP5-7 /// NADSYN1 (11734609_at) / RFU RASL12 (11751679_a_at) / Fold change /veh RASL12 (11751679_a_at) / RFU CDKN2B (11736163_a_at) / Fold change /veh CDKN2B (11736163_a_at) / RFU PRF1 (11729649_at) / Fold change /veh PRF1 (11729649_at) / RFU, ZNF638 /// ZNF638-IT1 / Fold change vs veh, ZNF638 /// ZNF638-IT1 / RFU, PANK3 / Fold change vs veh, PANK3 / RFU, SH3YL1 / Fold change vs veh, SH3YL1 / RFU, ZEB2 / Fold change vs veh, ZEB2 / RFU, NRIP1 / Fold change vs veh, NRIP1 / RFU, PTTG1IP / Fold change vs veh, PTTG1IP / RFU, CAPN2 / Fold change vs veh, CAPN2 / RFU, MED14 / Fold change vs veh, MED14 / RFU, SNORA58 / Fold change vs veh, SNORA58 / RFU, C1orf63 / Fold change vs veh, C1orf63 / RFU, LRRFIP1 / Fold change vs veh, LRRFIP1 / RFU, NDUFAF7 / Fold change vs veh, NDUFAF7 / RFU, SLC12A2 / Fold change vs veh, SLC12A2 / RFU, IBTK / Fold change vs veh, IBTK / RFU, ESF1 / Fold change vs veh, ESF1 / Fold change vs veh, TMEM50B / RFU, TAOK1 / Fold change vs veh, TAOK1 / RFU, ACBD3 / Fold change vs veh, ACBD3 / RFU, TMA16 / Fold change vs veh, TMA16 / RFU, RWDD3 / Fold change vs veh, RWDD3 / RFU, BCAT1 / Fold change vs veh, BCAT1 / RFU, EDEM3 / Fold change vs veh, EDEM3 / RFU, TMEM33 / Fold change vs veh, TMEM33 / RFU, WDR75 / Fold change vs veh, WDR75 / RFU, AHCTF1 / Fold change vs veh, AHCTF1 / RFU, TFRC / Fold change vs veh, TFRC / RFU, ZDHHC17 / Fold change vs veh, ZDHHC17 / RFU, NOM1 / Fold change vs veh, NOM1 / RFU, ARL8B / Fold change vs veh, ARL8B / RFU, ZBTB11 / Fold change vs veh, ZBTB11 / RFU, TAMM41 / Fold change vs veh, TAMM41 / RFU, KIAA1704 /// LOC100996395 / Fold change vs veh, KIAA1704 /// LOC100996395 / RFU, ING1 / Fold change vs veh, ING1 / RFU, TRMT61B / Fold change vs veh, TRMT61B / RFU, FUBP3 / Fold change vs veh, FUBP3 / RFU, TP53 / Fold change vs veh, TP53 / RFU, TNKS2 / Fold change vs veh, TNKS2 / RFU, ZFP14 / Fold change vs veh, ZFP14 / RFU, ACTR2 / Fold change vs veh, ACTR2 / RFU, PPP3R1 / Fold change vs veh, PPP3R1 / RFU, PIK3R1 / Fold change vs veh, PIK3R1 / RFU, HNRNPA1 / Fold change vs veh, HNRNPA1 / RFU, RNF170 / Fold change vs veh, RNF170 / RFU, ZNF28 / Fold change vs veh, ZNF28 / RFU, RNGTT / Fold change vs veh, RNGTT / RFU, OGT / Fold change vs veh, OGT / RFU, BRD1 / Fold change vs veh, BRD1 / RFU, MARS / Fold change vs veh, MARS / RFU, ZNF655 / Fold change vs veh, ZNF655 / RFU, FAHD1 / Fold change vs veh, FAHD1 / RFU, BDP1 / Fold change vs veh, BDP1 / RFU, LRRCC1 / Fold change vs veh, LRRCC1 / RFU, ARID1A / Fold change vs veh, ARID1A / RFU, ZNF146 / Fold change vs veh, ZNF146 / RFU, ZNF330 / Fold change vs veh, ZNF330 / RFU, GPN3 / Fold change vs veh, GPN3 / RFU, C9orf123 / Fold change vs veh, C9orf123 / RFU, N4BP2L2 / Fold change vs veh, N4BP2L2 / RFU, ARFIP1 / Fold change vs veh, ARFIP1 / RFU, FAM179B / Fold change vs veh, FAM179B / RFU, BCL10 / Fold change vs veh, BCL10 / RFU, UHRF1BP1L / Fold change vs veh, UHRF1BP1L / RFU, BET1 / Fold change vs veh, BET1 / RFU, CNOT2 / Fold change vs veh, CNOT2 / RFU, ZNF268 / Fold change vs veh, ZNF268 / Fold change vs veh, ZNF507 / RFU, DGCR2 / Fold change vs veh, DGCR2 / RFU, WDSUB1 / Fold change vs veh, WDSUB1 / Fold change vs veh, HSP90B1 /// MIR3652 / RFU, ADSS / Fold change vs veh, ADSS / RFU, GK / Fold change vs veh, GK / RFU, ZNF148 / Fold change vs veh, ZNF148 / RFU, TAF9 / Fold change vs veh, TAF9 / RFU, SLC1A5 / Fold change vs veh, SLC1A5 / RFU, SLMO2 / Fold change vs veh, SLMO2 / RFU, ABCC4 / Fold change vs veh, ABCC4 / RFU, LOC101060439 /// RAP1B / Fold change vs veh, LOC101060439 /// RAP1B / RFU, RFX7 / Fold change vs veh, RFX7 / RFU, GTPBP10 / Fold change vs veh, GTPBP10 / RFU, CNEP1R1 / Fold change vs veh, CNEP1R1 / RFU, BIVM-ERCC5 /// ERCC5 / Fold change vs veh, BIVM-ERCC5 /// ERCC5 / RFU, ILF3 / Fold change vs veh, ILF3 / RFU 11762660_at / Fold change /veh 11762660_at / RFU VCAN (11757783_s_at) / Fold change /veh VCAN (11757783_s_at) / RFU DDX43 (11728927_at) / Fold change /veh DDX43 (11728927_at) / RFU KRT8 (11758188_x_at) / Fold change /veh KRT8 (11758188_x_at) / RFU NKD1 (11759106_at) / Fold change /veh NKD1 (11759106_at) / RFU SRD5A1 (11742802_a_at) / Fold change /veh SRD5A1 (11742802_a_at) / RFU TPSAB1 /// TPSB2 (11721975_s_at) / Fold change /veh TPSAB1 /// TPSB2 (11721975_s_at) / RFU GSTM3 (11746129_a_at) / Fold change /veh GSTM3 (11746129_a_at) / RFU IL23R (11737362_x_at) / Fold change /veh IL23R (11737362_x_at) / RFU TMEM51 (11727254_a_at) / Fold change /veh TMEM51 (11727254_a_at) / RFU PIWIL2 (11732686_x_at) / Fold change /veh PIWIL2 (11732686_x_at) / RFU ORM1 (11744905_x_at) / Fold change /veh ORM1 (11744905_x_at) / RFU CCDC152 (11743942_at) / Fold change /veh CCDC152 (11743942_at) / RFU ECM1 (11717891_a_at) / Fold change /veh ECM1 (11717891_a_at) / RFU IL23R (11748794_a_at) / Fold change /veh IL23R (11748794_a_at) / RFU TNFAIP8L3 (11732012_x_at) / Fold change /veh TNFAIP8L3 (11732012_x_at) / RFU MBOAT4 (11741988_at) / Fold change /veh MBOAT4 (11741988_at) / RFU 11764193_at / Fold change /veh 11764193_at / RFU TMEM53 (11763286_at) / Fold change /veh TMEM53 (11763286_at) / RFU MAGEB2 (11727129_at) / Fold change /veh MAGEB2 (11727129_at) / RFU TMEM200A (11744735_a_at) / Fold change /veh TMEM200A (11744735_a_at) / RFU CCDC152 (11751479_a_at) / Fold change /veh CCDC152 (11751479_a_at) / RFU FAM211A (11726209_a_at) / Fold change /veh FAM211A (11726209_a_at) / RFU RGS16 (11746705_a_at) / Fold change /veh RGS16 (11746705_a_at) / RFU VCAN (11755009_s_at) / Fold change /veh VCAN (11755009_s_at) / RFU RHOB (11743442_s_at) / Fold change /veh RHOB (11743442_s_at) / RFU RGS16 (11720943_a_at) / Fold change /veh RGS16 (11720943_a_at) / RFU RGS16 (11720944_at) / Fold change /veh RGS16 (11720944_at) / RFU, VPS4B / Fold change vs veh, VPS4B / RFU, CREB1 / Fold change vs veh, CREB1 / RFU, DNAJC13 / Fold change vs veh, DNAJC13 / RFU, GNAQ / Fold change vs veh, GNAQ / RFU, CDK5R1 / Fold change vs veh, CDK5R1 / RFU, ZRANB3 / Fold change vs veh, ZRANB3 / RFU, CUL4A / Fold change vs veh, CUL4A / RFU, CCNY / Fold change vs veh, CCNY / RFU, UFL1 / Fold change vs veh, UFL1 / RFU, COG3 / Fold change vs veh, COG3 / RFU, DIAPH2 / Fold change vs veh, DIAPH2 / RFU, SKA2 / Fold change vs veh, SKA2 / RFU, AFF3 / Fold change vs veh, AFF3 / RFU, LMF1 / Fold change vs veh, LMF1 / RFU, IPO11 / Fold change vs veh, IPO11 / RFU, DFFB / Fold change vs veh, DFFB / RFU, FOXP1 / Fold change vs veh, FOXP1 / RFU, CARD8 / Fold change vs veh, CARD8 / RFU, STRN3 / Fold change vs veh, STRN3 / RFU, ADK / Fold change vs veh, ADK / RFU, RASSF2 / Fold change vs veh, RASSF2 / RFU, WIPF1 / Fold change vs veh, WIPF1 / RFU, LARP1B / Fold change vs veh, LARP1B / RFU, RASA1 / Fold change vs veh, RASA1 / RFU, RB1 / Fold change vs veh, RB1 / RFU, PPFIA1 / Fold change vs veh, PPFIA1 / RFU, MAT2A / Fold change vs veh, MAT2A / RFU, CCT5 / Fold change vs veh, CCT5 / RFU, WDR92 / Fold change vs veh, WDR92 / RFU, CUX1 / Fold change vs veh, CUX1 / RFU, TTC7A / Fold change vs veh, TTC7A / RFU, TMEM135 / Fold change vs veh, TMEM135 / RFU, DEPTOR / Fold change vs veh, DEPTOR / RFU, CPM / Fold change vs veh, CPM / RFU, DNAJB6 / Fold change vs veh, DNAJB6 / RFU, CACNA2D3 / Fold change vs veh, CACNA2D3 / RFU, DTX4 / Fold change vs veh, DTX4 / RFU, TFCP2 / Fold change vs veh, TFCP2 / RFU, GMCL1 /// GMCL1P1 / Fold change vs veh, GMCL1 /// GMCL1P1 / RFU, AEBP2 / Fold change vs veh, AEBP2 / RFU, SNHG1 /// SNORD22 /// SNORD25 /// SNORD26 /// SNORD27 /// SNORD28 /// SNORD29 /// SNORD31 / Fold change vs veh, SNHG1 /// SNORD22 /// SNORD25 /// SNORD26 /// SNORD27 /// SNORD28 /// SNORD29 /// SNORD31 / Fold change (Aza/veh), C12orf56 (ProbeSet 11735607_a_at) / Fold change (ACY-1035/veh), C12orf56 (ProbeSet 11735607_a_at) / Fold change (Aza/veh), FGFR1OP (ProbeSet 11751329_s_at) / Fold change (ACY-1035/veh), FGFR1OP (ProbeSet 11751329_s_at) / Fold change (Aza/veh), VPS36 (ProbeSet 11739960_a_at) / Fold change (ACY-1035/veh), VPS36 (ProbeSet 11739960_a_at) / RFU SYPL1 (11715823_x_at) / Fold change /veh SYPL1 (11715823_x_at) / RFU IGFBP7 (11715501_s_at) / Fold change /veh IGFBP7 (11715501_s_at) / RFU REEP3 (11722064_at) / Fold change /veh REEP3 (11722064_at) / RFU IGLL1 (11728026_x_at) / Fold change /veh IGLL1 (11728026_x_at): dose or concentration left out as unconfirmed
Details: ProbeSet 11728271_at; LIST B

Nc1ncn([C@@H]2O[C@H](CO)[C@@H](O)[C@H]2O)c(=O)n1 [azacitidine]
Fold change vs veh, ZNF330: 0.94
